In ChEMBL document CHEMBL4229332, “Novel multi-target azinesulfonamides of cyclic amine derivatives as potential antipsychotics with pro-social and pro-cognitive effects” (Eur J Med Chem, 2018) one finds Ki, inhibition and Kb data, which are given here for two compounds.

Structures are written as SMILES.

The target of test [1] is Sodium-dependent serotonin transporter (Homo sapiens, UniProt P31645). The test is described as follows: Displacement of [3H]imipramine from recombinant human SERT expressed in CHO cells after 60 mins by scintillation counting method. In kind it is cell-based.
Test [2] has as its target T1, 5-hydroxytryptamine receptor 7 (Homo sapiens, UniProt P34969). The test is described as follows: Antagonist activity at human 5-HT7R expressed in human DLD1 cells assessed as inhibition of serotonin-induced cAMP accumulation at 10^-6 M by chemiluminescence-based assay. The format is functional, cell-based.
Test [3] concerns the target T2, 5-hydroxytryptamine receptor 2A (Homo sapiens, UniProt P28223). In words: Antagonist activity at human 5-HT2AR expressed in HEK293 cells assessed as inhibition of serotonin-induced IP1 accumulation by chemiluminescence-based assay. The format is functional, cell-based.
Test [4] deals with 5-hydroxytryptamine receptor 1B (Cricetulus griseus) (UniProt P46636). In words: Antagonist activity at 5-HT1BR in CHO cells assessed as inhibition of serotonin-induced response. In kind it is functional, cell-based.
The target of test [5] is 5-hydroxytryptamine receptor 2C (Homo sapiens) (UniProt P28335). The test is described as follows: Antagonist activity at human 5-HT2CR expressed in HEK293 cells assessed as inhibition of serotonin-induced IP1 accumulation after 30 mins by HTRF method. In kind it is functional, cell-based.
Test [6] deals with T3, 5-hydroxytryptamine receptor 6 (Homo sapiens, UniProt P50406). The test is described as follows: Displacement of [3H]LSD from human recombinant 5-HT6 receptor at 10^-6 M after 120 mins by scintillation counting analysis relative to control.
Test [7] addresses D(1A) dopamine receptor (Homo sapiens) (UniProt P21728). In words: Displacement of [3H]-SCH 23390 from human dopamine D1 receptor expressed in CHO cells at 10^-6 M after 60 mins by scintillation counting method relative to control. The format is cell-based.
Test [8] has as its target Histamine H1 receptor (Homo sapiens) (UniProt P35367). The test is described as follows: Displacement of [3H]-pyrilamine from human histamine H1 receptor expressed in HEK293 cells at 10^-6 M after 60 mins by scintillation counting method relative to control. The format is cell-based.
In test [9] the target is D(2) dopamine receptor (Homo sapiens) (UniProt P14416). The test is described as follows: Displacement of [3H]7-OH-DPAT from human recombinant dopamine D2S receptor expressed in CHO cells at 10^-6 M after 60 mins by scintillation counting analysis relative to control. The format is cell-based.
In test [10] the target is T2, 5-hydroxytryptamine receptor 2A. The test is described as follows: Displacement of [3H]ketanserin from human recombinant 5-HT2A receptor at 10^-6 M after 60 mins by scintillation counting analysis relative to control.
Test [11] has as its target 5-hydroxytryptamine receptor 1D (Rattus norvegicus) (UniProt P28565). The test is described as follows: Displacement of [3H]-serotonin from rat 5-HT1DR expressed in CHO cells at 10^-6 M after 60 mins by scintillation counting analysis relative to control. In kind it is cell-based.
The target of test [12] is D(3) dopamine receptor (Homo sapiens) (UniProt P35462). In words: Antagonist activity at human D3R expressed in CHO-K1 cells assessed as inhibition of […] cAMP accumulation at 10^-6 M by chemiluminescence-based assay. The format is functional, cell-based.
The target of test [13] is Alpha-2C adrenergic receptor (Homo sapiens) (UniProt P18825). In words: Displacement of [3H]-RX 821002 from human adrenergic alpha2C receptor expressed in CHO cells at 10^-6 M after 60 mins by scintillation counting method relative to control. In kind it is cell-based.
Test [14] deals with D(4) dopamine receptor (Homo sapiens) (UniProt P21917). In words: Displacement of [3H]-methyl-spiperone from human dopamine D4 receptor expressed in CHO cells at 10^-6 M after 60 mins by scintillation counting method relative to control. In kind it is cell-based.
Test [15] concerns the target 5-hydroxytryptamine receptor 1D (Rattus norvegicus) (UniProt P28565). In words: Antagonist activity at rat 5-HT1DR expressed in CHO cells assessed as inhibition of serotonin-induced response by cellular dielectric spectroscopy. The format is functional, cell-based.
Test [16] deals with Beta-1 adrenergic receptor (Homo sapiens) (UniProt P08588). In words: Displacement of [3H]-CGP 12177 from human adrenergic beta1 receptor expressed in HEK293 cells at 10^-6 M after 60 mins by scintillation counting method relative to control. In kind it is cell-based.
Test [17] deals with T4, 5-hydroxytryptamine receptor 1A (Homo sapiens) (UniProt P08908).
T4 sequence (whole entry): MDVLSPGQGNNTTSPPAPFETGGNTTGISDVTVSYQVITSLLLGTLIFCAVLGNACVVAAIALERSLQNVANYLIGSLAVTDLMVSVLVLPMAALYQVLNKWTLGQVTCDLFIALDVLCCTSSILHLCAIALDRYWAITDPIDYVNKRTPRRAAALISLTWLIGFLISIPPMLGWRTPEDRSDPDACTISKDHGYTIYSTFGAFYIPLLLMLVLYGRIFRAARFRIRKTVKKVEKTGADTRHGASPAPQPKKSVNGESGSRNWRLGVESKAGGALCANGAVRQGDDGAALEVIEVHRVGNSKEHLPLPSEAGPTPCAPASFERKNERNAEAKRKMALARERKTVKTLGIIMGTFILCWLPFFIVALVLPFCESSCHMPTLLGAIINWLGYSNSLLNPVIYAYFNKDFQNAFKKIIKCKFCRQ
In words: Antagonist activity at human 5-HT1AR expressed in CHO-K1 cells assessed as inhibition of serotonin-induced cAMP accumulation by chemiluminescence-based assay. In kind it is functional, cell-based.

Test [18] addresses T3, 5-hydroxytryptamine receptor 6. In words: biochemical.
Description: Displacement of [3H]-LSD from human 5-HT6R expressed in HEK293 cell membranes after 1 hr at 37 degC by microbeta counting method
For test [19], the target named is D(2) dopamine receptor (Homo sapiens) (UniProt P14416). The test is described as follows: Antagonist activity at human D2LR expressed in CHO-K1 cells assessed as inhibition of dopamine-induced calcium flux at 10^-6 M by fluorimetric method. The format is functional, cell-based.
The target of test [20] is T3, 5-hydroxytryptamine receptor 6. In words: Antagonist activity at human 5-HT6R expressed in CHO-K1 cells assessed as inhibition of serotonin-induced cAMP accumulation at 10^-6 M after 30 mins by chemiluminescence-based assay. The format is functional, cell-based.
Test [21] deals with T4, 5-hydroxytryptamine receptor 1A (Homo sapiens). The test is described as follows: Antagonist activity at human 5-HT1AR expressed in mouse BA/F3 cells assessed as inhibition of serotonin-induced calcium flux by fluorimetric method. The format is functional, cell-based.
Test [22] has as its target D(2) dopamine receptor (Homo sapiens) (UniProt P14416). In words: Antagonist activity at human D2LR expressed in CHO-K1 cells assessed as inhibition of dopamine-induced calcium flux by fluorimetric method. In kind it is functional, cell-based.
The target in test [23] is T2, 5-hydroxytryptamine receptor 2A. The test is described as follows: Antagonist activity at human 5-HT2AR expressed in HEK293 cells assessed as inhibition of serotonin-induced calcium flux at 10^-6 M after 30 mins by HTRF method. In kind it is functional, cell-based.
Test [24] addresses T1, 5-hydroxytryptamine receptor 7. The test is described as follows: Antagonist activity at human 5-HT7R expressed in CHO-K1 cells assessed as inhibition of serotonin-induced cAMP accumulation after 30 mins by chemiluminescence-based assay. The format is functional, cell-based.
The target in test [25] is T2, 5-hydroxytryptamine receptor 2A. In words: Antagonist activity at human 5-HT2AR expressed in HEK293 cells assessed as inhibition of serotonin-induced calcium flux after 30 mins by HTRF method. In kind it is functional, cell-based.
For test [26], the target named is D(3) dopamine receptor (Homo sapiens) (UniProt P35462). The test is described as follows: Antagonist activity at human D3R expressed in CHO-K1 cells assessed as inhibition of dopamine induced cAMP accumulation at 10^-6 M after 30 mins by HTRF method. The format is functional, cell-based.
Test [27] shares this target. The test is described as follows: Antagonist activity at human D3R expressed in CHO-K1 cells assessed as inhibition of dopamine induced cAMP accumulation after 30 mins by HTRF method. The format is functional, cell-based.

Sequence of D(2) dopamine receptor (Homo sapiens) (P14416 whole entry): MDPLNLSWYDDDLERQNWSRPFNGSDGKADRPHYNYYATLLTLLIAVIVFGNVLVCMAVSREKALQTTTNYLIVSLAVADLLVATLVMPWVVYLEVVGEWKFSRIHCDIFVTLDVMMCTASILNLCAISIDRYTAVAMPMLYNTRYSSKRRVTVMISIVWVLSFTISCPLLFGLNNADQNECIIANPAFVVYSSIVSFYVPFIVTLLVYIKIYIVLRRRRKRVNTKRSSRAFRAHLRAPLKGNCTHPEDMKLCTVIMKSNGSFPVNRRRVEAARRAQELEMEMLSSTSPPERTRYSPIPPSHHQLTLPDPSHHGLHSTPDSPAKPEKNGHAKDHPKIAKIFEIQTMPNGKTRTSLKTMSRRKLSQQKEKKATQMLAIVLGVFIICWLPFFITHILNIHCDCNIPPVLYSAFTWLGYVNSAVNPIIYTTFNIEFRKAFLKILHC
Sequence of D(3) dopamine receptor (Homo sapiens) (P35462 whole entry): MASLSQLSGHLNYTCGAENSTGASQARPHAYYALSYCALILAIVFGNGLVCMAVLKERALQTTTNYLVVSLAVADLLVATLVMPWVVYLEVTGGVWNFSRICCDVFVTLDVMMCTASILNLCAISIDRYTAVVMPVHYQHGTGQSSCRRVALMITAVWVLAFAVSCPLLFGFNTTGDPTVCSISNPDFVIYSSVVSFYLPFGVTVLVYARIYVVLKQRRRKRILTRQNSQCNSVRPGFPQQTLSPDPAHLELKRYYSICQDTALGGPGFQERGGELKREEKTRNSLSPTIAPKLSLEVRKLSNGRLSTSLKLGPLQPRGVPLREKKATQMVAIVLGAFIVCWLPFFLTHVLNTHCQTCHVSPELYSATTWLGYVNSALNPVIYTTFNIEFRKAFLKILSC
T3 sequence (P50406 whole entry): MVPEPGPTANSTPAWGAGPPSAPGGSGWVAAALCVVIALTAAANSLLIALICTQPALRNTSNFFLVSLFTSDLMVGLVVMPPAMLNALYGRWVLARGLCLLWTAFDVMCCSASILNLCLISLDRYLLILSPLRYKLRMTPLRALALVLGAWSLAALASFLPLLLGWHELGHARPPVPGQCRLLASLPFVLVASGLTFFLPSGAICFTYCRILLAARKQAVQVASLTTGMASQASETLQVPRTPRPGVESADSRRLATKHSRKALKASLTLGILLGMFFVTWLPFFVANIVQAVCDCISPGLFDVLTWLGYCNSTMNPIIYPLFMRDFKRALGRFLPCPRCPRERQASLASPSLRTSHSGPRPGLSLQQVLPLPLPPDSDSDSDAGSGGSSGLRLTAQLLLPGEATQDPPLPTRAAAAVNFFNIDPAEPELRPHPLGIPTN
T2 sequence (P28223 whole entry): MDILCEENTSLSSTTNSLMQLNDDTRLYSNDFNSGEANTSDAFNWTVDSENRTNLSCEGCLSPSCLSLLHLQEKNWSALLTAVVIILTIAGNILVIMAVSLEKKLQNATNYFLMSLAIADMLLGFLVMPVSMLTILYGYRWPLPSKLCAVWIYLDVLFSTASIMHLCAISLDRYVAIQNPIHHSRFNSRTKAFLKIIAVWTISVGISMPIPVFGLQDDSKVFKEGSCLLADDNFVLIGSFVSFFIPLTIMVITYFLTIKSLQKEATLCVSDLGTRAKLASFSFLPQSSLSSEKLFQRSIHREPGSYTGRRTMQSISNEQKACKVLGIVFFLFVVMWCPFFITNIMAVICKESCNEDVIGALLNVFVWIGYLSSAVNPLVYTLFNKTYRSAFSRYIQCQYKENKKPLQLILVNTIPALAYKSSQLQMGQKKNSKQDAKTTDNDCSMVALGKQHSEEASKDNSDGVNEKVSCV
Sequence of 5-hydroxytryptamine receptor 1D (Rattus norvegicus) (P28565 whole entry): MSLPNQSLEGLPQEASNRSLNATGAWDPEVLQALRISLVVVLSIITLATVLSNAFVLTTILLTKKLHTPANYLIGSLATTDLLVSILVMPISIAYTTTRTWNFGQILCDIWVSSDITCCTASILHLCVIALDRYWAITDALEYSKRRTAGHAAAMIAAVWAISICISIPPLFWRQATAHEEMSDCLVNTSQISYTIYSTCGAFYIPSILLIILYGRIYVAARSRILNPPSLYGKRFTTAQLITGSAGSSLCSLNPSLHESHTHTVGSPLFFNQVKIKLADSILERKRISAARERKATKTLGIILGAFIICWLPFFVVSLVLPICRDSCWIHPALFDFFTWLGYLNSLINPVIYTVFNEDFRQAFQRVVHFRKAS
T1 sequence (P34969 whole entry): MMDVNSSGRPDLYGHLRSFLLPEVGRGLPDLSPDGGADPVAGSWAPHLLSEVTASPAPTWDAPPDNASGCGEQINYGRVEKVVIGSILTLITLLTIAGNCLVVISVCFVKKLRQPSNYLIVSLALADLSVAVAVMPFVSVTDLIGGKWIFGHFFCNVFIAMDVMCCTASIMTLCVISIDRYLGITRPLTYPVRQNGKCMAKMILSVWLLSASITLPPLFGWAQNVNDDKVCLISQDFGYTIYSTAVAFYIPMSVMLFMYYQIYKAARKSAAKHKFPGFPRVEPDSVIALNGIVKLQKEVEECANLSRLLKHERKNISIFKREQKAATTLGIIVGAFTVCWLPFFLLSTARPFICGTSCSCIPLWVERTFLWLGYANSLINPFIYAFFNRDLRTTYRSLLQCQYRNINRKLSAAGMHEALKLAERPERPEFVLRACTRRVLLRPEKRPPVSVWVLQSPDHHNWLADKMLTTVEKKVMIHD
Sequence of D(1A) dopamine receptor (Homo sapiens) (P21728 whole entry): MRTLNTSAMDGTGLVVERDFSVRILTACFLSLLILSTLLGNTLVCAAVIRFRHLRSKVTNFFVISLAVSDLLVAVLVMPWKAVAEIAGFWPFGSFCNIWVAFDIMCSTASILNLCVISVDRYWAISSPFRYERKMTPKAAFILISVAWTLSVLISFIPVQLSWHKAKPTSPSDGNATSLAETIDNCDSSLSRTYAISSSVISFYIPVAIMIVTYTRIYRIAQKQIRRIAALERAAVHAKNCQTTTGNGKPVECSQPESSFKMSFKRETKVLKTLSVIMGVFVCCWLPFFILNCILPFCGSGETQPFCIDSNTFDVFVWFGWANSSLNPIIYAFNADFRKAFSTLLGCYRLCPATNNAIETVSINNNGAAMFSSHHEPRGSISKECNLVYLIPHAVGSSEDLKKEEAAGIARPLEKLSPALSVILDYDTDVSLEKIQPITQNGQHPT
Sequence of Alpha-2C adrenergic receptor (Homo sapiens) (P18825 whole entry): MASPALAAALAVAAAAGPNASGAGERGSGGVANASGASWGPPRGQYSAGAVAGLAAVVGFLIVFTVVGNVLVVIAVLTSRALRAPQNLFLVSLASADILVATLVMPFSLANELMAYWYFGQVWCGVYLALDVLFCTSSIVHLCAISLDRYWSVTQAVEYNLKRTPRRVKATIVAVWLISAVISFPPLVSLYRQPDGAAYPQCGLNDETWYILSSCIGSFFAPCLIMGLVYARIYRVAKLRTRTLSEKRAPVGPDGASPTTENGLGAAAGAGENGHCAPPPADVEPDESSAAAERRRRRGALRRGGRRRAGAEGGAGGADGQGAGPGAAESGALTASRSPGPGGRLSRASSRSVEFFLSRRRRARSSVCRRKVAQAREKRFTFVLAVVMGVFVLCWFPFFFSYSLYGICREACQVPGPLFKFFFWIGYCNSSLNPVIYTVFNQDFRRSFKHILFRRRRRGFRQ
Sequence of 5-hydroxytryptamine receptor 1B (Cricetulus griseus) (P46636 whole entry): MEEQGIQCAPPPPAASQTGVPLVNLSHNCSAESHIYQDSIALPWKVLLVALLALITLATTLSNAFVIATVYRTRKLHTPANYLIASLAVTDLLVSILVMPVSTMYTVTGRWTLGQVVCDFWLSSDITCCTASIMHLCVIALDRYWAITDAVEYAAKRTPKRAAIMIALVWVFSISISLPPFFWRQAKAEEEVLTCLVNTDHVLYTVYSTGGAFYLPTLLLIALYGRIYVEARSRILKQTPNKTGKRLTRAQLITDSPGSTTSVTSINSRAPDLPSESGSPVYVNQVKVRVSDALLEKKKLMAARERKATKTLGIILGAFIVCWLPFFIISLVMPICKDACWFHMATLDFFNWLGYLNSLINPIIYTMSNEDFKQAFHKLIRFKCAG
Sequence of D(4) dopamine receptor (Homo sapiens) (P21917 whole entry): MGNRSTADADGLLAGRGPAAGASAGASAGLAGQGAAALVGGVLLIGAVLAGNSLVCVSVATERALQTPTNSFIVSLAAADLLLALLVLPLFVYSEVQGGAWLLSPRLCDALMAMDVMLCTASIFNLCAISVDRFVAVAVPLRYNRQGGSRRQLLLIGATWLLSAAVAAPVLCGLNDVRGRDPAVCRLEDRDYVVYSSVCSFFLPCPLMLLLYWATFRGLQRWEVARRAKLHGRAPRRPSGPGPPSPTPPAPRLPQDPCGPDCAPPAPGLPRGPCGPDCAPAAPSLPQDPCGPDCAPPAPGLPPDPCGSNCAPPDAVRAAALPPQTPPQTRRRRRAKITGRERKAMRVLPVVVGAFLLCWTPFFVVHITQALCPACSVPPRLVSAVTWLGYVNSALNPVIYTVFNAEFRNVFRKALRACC
Sequence of Histamine H1 receptor (Homo sapiens) (P35367 whole entry): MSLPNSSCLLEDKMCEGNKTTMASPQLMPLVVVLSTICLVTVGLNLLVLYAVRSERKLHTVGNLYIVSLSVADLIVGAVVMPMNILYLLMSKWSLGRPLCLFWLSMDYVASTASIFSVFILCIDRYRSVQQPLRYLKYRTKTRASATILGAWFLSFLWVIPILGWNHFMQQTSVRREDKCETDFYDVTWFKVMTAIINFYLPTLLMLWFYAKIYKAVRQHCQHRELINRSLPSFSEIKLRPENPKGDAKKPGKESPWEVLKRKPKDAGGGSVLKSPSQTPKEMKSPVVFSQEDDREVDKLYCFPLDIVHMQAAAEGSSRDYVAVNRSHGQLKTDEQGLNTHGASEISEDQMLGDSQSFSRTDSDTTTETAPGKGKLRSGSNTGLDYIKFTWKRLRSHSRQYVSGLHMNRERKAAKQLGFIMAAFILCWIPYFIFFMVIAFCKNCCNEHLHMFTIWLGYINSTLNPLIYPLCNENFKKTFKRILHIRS

Take `O=S(=O)(c1cncc2ccccc12)N1CCC[C@H]1CCN1CCN(c2cccc3sccc23)CC1`: the Ki in test [1] turned out to be 76 nM. For the same compound, the inhibition in [2] was determined as 94%; in test [6] it was 23%; in test [7], 10%; in [8] it was 96%; in [9], 100%; in test [10], 100%. Further, the inhibition came to 95% in test [11]; 73% in test [12]; 99% in test [13]; 10% in test [14]; 31% in test [16]. Moreover, the Kb in [3] turned out to be 2.3 nM; in test [4], 210 nM; in [5] it was 24 nM; in [15] it was 2.8 nM; in [17], 35.6 nM.

Compound `O=S(=O)(c1cncc2ccccc12)N1CCC[C@H]1CCN1CCN(c2nsc3ccccc23)CC1` came in with a Ki in test [18] of 313 nM. Further, the inhibition in [19] turned out to be 100%; in test [20], 23%; in test [23], 100%; in [26] it was 100%. For the same compound, the Kb amounted to 11 nM in [21]; 0.42 nM in test [22]; 2.5 nM in [24]; 2 nM in test [25]; 8.6 nM in test [27].
